Test results as given in PubChem BioAssay AID256 (DTP/NCI, 2004).
Values joined by “and” are separate entries in the source; they are usually repeats but may differ in a detail not shown here. Identical values can stand only once. Inconclusive results and toxic doses are left out. How the source made its calls: active means survival T/C of 150% or more; inactive means T/C below 125% in these data.

Test system: CD2F1 mice, L1210 leukemia ip, survival T/C
Test: NCI In Vivo Anticancer Drug Screen. Data for tumor model L1210 Leukemia (intraperitoneal) in CD2F1 (CDF1) mice
Conditions: higher = longer survival
Summary of the method: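 Implant tumor; dose compound or vehicle; measure endpoint in both groups; report treated divided by control.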

[1] = endpoint: mean survival time, dose: 100.0 mg/kg/injection, schedule: Q01DX009 (ip), vehicle: saline with Tween-80
[2] = endpoint: mean survival time, dose: 200.0 mg/kg/injection, schedule: Q01DX009 (ip), vehicle: saline with Tween-80
[3] = endpoint: mean survival time, dose: 100.0 mg/kg/injection, schedule: Q04DX003 (ip), vehicle: saline with Tween-80
[4] = endpoint: mean survival time, dose: 200.0 mg/kg/injection, schedule: Q04DX003 (ip), vehicle: saline with Tween-80
[5] = endpoint: mean survival time, dose: 400.0 mg/kg/injection, schedule: Q04DX003 (ip), vehicle: saline with Tween-80
[6] = endpoint: mean survival time, dose: 12.5 mg/kg/injection, schedule: Q01DX001 (ip), vehicle: saline
[7] = endpoint: mean survival time, dose: 200.0 mg/kg/injection, schedule: Q04DX003 (ip), vehicle: saline
[8] = endpoint: mean survival time, dose: 50.0 mg/kg/injection, schedule: Q04DX002 (ip), vehicle: saline with Tween-80
[9] = endpoint: mean survival time, dose: 100.0 mg/kg/injection, schedule: Q04DX002 (ip), vehicle: saline with Tween-80
[10] = endpoint: mean survival time, dose: 75.0 mg/kg/injection, schedule: Q01DX001 (ip), vehicle: saline
[11] = endpoint: mean survival time, dose: 150.0 mg/kg/injection, schedule: Q01DX001 (ip), vehicle: saline
[12] = endpoint: mean survival time, dose: 400.0 mg/kg/injection, schedule: Q01DX009 (ip), vehicle: saline with Tween-80
[13] = endpoint: mean survival time, dose: 100.0 mg/kg/injection, schedule: Q01DX001 (ip), vehicle: saline with Tween-80
[14] = endpoint: mean survival time, dose: 50.0 mg/kg/injection, schedule: Q04DX003 (ip), vehicle: saline with Tween-80
[15] = endpoint: mean survival time, dose: 100.0 mg/kg/injection, schedule: Q04DX003 (ip), vehicle: saline
[16] = endpoint: mean survival time, dose: 400.0 mg/kg/injection, schedule: Q04DX003 (ip), vehicle: saline

Measured: T/C

C1=CC2CC3(OCCO3)C2C1 (stereo unspecified)
inactive: [1] 98 % of control | [2] 98 % of control

Cc1nc(/N=C(\N)Nc2ccc(Cl)c(Cl)c2)[nH]c(=O)c1Cc1ccccc1
inactive: [3] 95 % of control | [4] 88 % of control | [5] 102 % of control

CN(CCCOS(C)(=O)=O)CCCOS(C)(=O)=O
inactive: endpoint: mean survival time, dose: 6.3 mg/kg/injection, schedule: Q01DX009 (ip), vehicle: saline 123 % of control | endpoint: mean survival time, dose: 6.3 mg/kg/injection, schedule: Q04DX003 (ip), vehicle: saline 117 % of control and 119 % of control and 109 % of control | endpoint: mean survival time, dose: 8.4 mg/kg/injection, schedule: Q01DX009 (oral), vehicle: saline 104 % of control | [6] 108 % of control | endpoint: mean survival time, dose: 39.0 mg/kg/injection, schedule: Q01DX009 (oral), vehicle: saline 121 % of control | endpoint: mean survival time, dose: 65.0 mg/kg/injection, schedule: Q01DX001 (oral), vehicle: saline 104 % of control | endpoint: mean survival time, dose: 100.0 mg/kg/injection, schedule: Q01DX009 (ip), vehicle: saline 87 % of control and 105 % of control and 93 % of control | endpoint: mean survival time, dose: 108.0 mg/kg/injection, schedule: Q01DX001 (oral), vehicle: saline 102 % of control | endpoint: mean survival time, dose: 200.0 mg/kg/injection, schedule: Q01DX001 (ip), vehicle: saline 118 % of control | [7] 87 % of control and 88 % of control | endpoint: mean survival time, dose: 300.0 mg/kg/injection, schedule: Q01DX001 (oral), vehicle: saline 114 % of control

CC(C)(C)c1ccc(SC(=O)c2ccc(C(=O)Sc3ccc(C(C)(C)C)cc3)cc2)cc1
inactive: endpoint: mean survival time, dose: 25.0 mg/kg/injection, schedule: Q04DX002 (ip), vehicle: saline with Tween-80 91 % of control | [8] 87 % of control | [9] 91 % of control and 102 % of control

CNC(CCNCCc1ccccc1)CNCCc1ccccc1 (stereo unspecified)
inactive: [10] 97 % of control | [11] 107 % of control

CC(=O)NC(CC(C)C)C(=O)O.CC(=O)NC(CC(C)C)C(=O)O.[NH-]C1CCCCC1[NH-].[Pt+2] (stereo unspecified)
inactive: endpoint: median survival time, dose: 3.12 mg/kg/injection, schedule: Q04DX003 (ip), vehicle: saline 97 % of control | endpoint: median survival time, dose: 6.25 mg/kg/injection, schedule: Q04DX003 (ip), vehicle: saline 100 % of control | endpoint: median survival time, dose: 12.5 mg/kg/injection, schedule: Q04DX003 (ip), vehicle: saline 97 % of control | endpoint: median survival time, dose: 25.0 mg/kg/injection, schedule: Q04DX003 (ip), vehicle: saline 100 % of control | endpoint: median survival time, dose: 50.0 mg/kg/injection, schedule: Q04DX003 (ip), vehicle: saline 104 % of control | endpoint: median survival time, dose: 100.0 mg/kg/injection, schedule: Q04DX003 (ip), vehicle: saline 105 % of control | endpoint: median survival time, dose: 200.0 mg/kg/injection, schedule: Q04DX003 (ip), vehicle: saline 108 % of control

N#CC(N)=O
inactive: endpoint: mean survival time, dose: 100.0 mg/kg/injection, schedule: Q04DX002 (ip), vehicle: saline 97 % of control | endpoint: mean survival time, dose: 200.0 mg/kg/injection, schedule: Q04DX002 (ip), vehicle: saline 91 % of control | endpoint: mean survival time, dose: 400.0 mg/kg/injection, schedule: Q04DX002 (ip), vehicle: saline 94 % of control

Nc1nc(N)c2c(n1)CN(c1ccc(Cl)cc1)C2
inactive: [10] 104 % of control | [11] 96 % of control | endpoint: mean survival time, dose: 300.0 mg/kg/injection, schedule: Q01DX001 (ip), vehicle: saline 98 % of control

CC/C(=C\c1ccc(Cl)cc1)[N+](=O)[O-]
inactive: endpoint: mean survival time, dose: 12.5 mg/kg/injection, schedule: Q04DX003 (ip), vehicle: Klucel (hydroxypropylcellulose) (HPC) 102 % of control | endpoint: mean survival time, dose: 25.0 mg/kg/injection, schedule: Q04DX003 (ip), vehicle: Klucel (hydroxypropylcellulose) (HPC) 97 % of control | endpoint: mean survival time, dose: 50.0 mg/kg/injection, schedule: Q04DX003 (ip), vehicle: Klucel (hydroxypropylcellulose) (HPC) 97 % of control

CCOC(=O)Nc1ccc(F)cc1F
inactive: [1] 94 % of control | [2] 94 % of control | [12] 100 % of control

NC(=O)C(CC(=O)OCc1ccccc1)NC(=O)OCc1ccccc1 (stereo unspecified)
inactive: endpoint: mean survival time, dose: 100.0 mg/kg/injection, schedule: Q04DX003 (ip), vehicle: saline + alcohol 97 % of control | endpoint: mean survival time, dose: 200.0 mg/kg/injection, schedule: Q04DX003 (ip), vehicle: saline + alcohol 97 % of control | endpoint: mean survival time, dose: 400.0 mg/kg/injection, schedule: Q04DX003 (ip), vehicle: saline + alcohol 97 % of control

Nc1nc(N)c(-c2ccc(Cl)cc2)c(CBr)n1
inactive: endpoint: mean survival time, dose: 6.25 mg/kg/injection, schedule: Q01DX001 (ip), vehicle: saline 95 % of control | [6] 98 % of control | endpoint: mean survival time, dose: 25.0 mg/kg/injection, schedule: Q01DX001 (ip), vehicle: saline with Tween-80 106 % of control | endpoint: mean survival time, dose: 25.0 mg/kg/injection, schedule: Q01DX001 (ip), vehicle: saline 98 % of control | endpoint: mean survival time, dose: 50.0 mg/kg/injection, schedule: Q01DX001 (ip), vehicle: saline with Tween-80 95 % of control | [13] 102 % of control and 110 % of control

O=C1c2ccccc2C(=O)N1CN1CCC(CCCC2CCN(CN3C(=O)c4ccccc4C3=O)CC2)CC1
inactive: endpoint: mean survival time, dose: 25.0 mg/kg/injection, schedule: Q04DX003 (ip), vehicle: saline with Tween-80 95 % of control | [14] 95 % of control | [3] 95 % of control

CC/C=C\CC1OCCO1
inactive: endpoint: mean survival time, dose: 50.0 mg/kg/injection, schedule: Q01DX009 (ip), vehicle: saline with Tween-80 95 % of control | [1] 92 % of control | [2] 95 % of control

CC(=O)Nc1ccc(F)cc1
inactive: [15] 105 % of control | [7] 100 % of control | [16] 95 % of control

[Br][Pt+2][Br].[NH-]C1CCCCC1[NH-] (stereo unspecified)
inactive: endpoint: mean survival time, dose: 0.78 mg/kg/injection, schedule: Q04DX003 (ip), vehicle: saline with Tween-80 110 % of control | endpoint: mean survival time, dose: 1.56 mg/kg/injection, schedule: Q04DX003 (ip), vehicle: saline with Tween-80 113 % of control

O=C1C=CC(=O)C(SCCC(=O)O)=C1
inactive: [14] 94 % of control | [3] 96 % of control | [4] 111 % of control

CCOC(=O)C(=CNc1cc(C)ccn1)C(=O)OCC
inactive: [1] 109 % of control | [2] 98 % of control | [12] 94 % of control

CCCCCCCCCCCCCCOS(=O)(=O)O
inactive: endpoint: mean survival time, dose: 37.5 mg/kg/injection, schedule: Q01DX009 (ip), vehicle: saline 93 % of control | endpoint: mean survival time, dose: 75.0 mg/kg/injection, schedule: Q01DX009 (ip), vehicle: saline 93 % of control

CC(=O)CC(=O)C(F)(F)F.CC(=O)CC(=O)C(F)(F)F.CC(=O)CC(=O)C(F)(F)F.[Sm]
inactive: [3] 95 % of control | [4] 100 % of control | [5] 100 % of control

Cc1c(OCC(=O)O)cc(Cl)c(Cl)c1Cl
inactive: [8] 105 % of control | [9] 102 % of control | endpoint: mean survival time, dose: 200.0 mg/kg/injection, schedule: Q04DX002 (ip), vehicle: saline with Tween-80 121 % of control

O=C(CC(O)(C(F)(F)F)C(F)(F)F)CC(O)(C(F)(F)F)C(F)(F)F
inactive: endpoint: mean survival time, dose: 5.0 mg/kg/injection, schedule: Q01DX001 (ip), vehicle: saline with Tween-80 94 % of control | endpoint: mean survival time, dose: 5.0 mg/kg/injection, schedule: Q04DX003 (ip), vehicle: saline 102 % of control | endpoint: mean survival time, dose: 10.0 mg/kg/injection, schedule: Q04DX003 (ip), vehicle: saline 92 % of control

C[CH2][Sn]1([CH2]C)[O]CC2OC(n3cc(C)c(=O)[nH]c3=O)CC2[O]1 (stereo unspecified)
inactive: endpoint: mean survival time, dose: 0.78 mg/kg/injection, schedule: Q01DX005 (ip), vehicle: other 94 % of control | endpoint: mean survival time, dose: 1.56 mg/kg/injection, schedule: Q01DX005 (ip), vehicle: other 104 % of control | endpoint: mean survival time, dose: 3.13 mg/kg/injection, schedule: Q01DX005 (ip), vehicle: other 110 % of control | endpoint: mean survival time, dose: 6.25 mg/kg/injection, schedule: Q01DX005 (ip), vehicle: other 107 % of control

O=C(O)/C=C\C(=O)Nc1ccccc1NC(=O)/C=C/C(=O)O
inactive: [15] 110 % of control | [7] 99 % of control | [16] 101 % of control

Nc1cc(Cl)cc2c1-c1ccc(Cl)cc1C2Br (stereo unspecified)
inactive: endpoint: mean survival time, dose: 50.0 mg/kg/injection, schedule: Q01DX001 (ip), vehicle: carboxymethylcellulose (CMC) 102 % of control | endpoint: mean survival time, dose: 100.0 mg/kg/injection, schedule: Q01DX001 (ip), vehicle: carboxymethylcellulose (CMC) 108 % of control | endpoint: mean survival time, dose: 200.0 mg/kg/injection, schedule: Q01DX001 (ip), vehicle: carboxymethylcellulose (CMC) 108 % of control | endpoint: mean survival time, dose: 400.0 mg/kg/injection, schedule: Q01DX001 (ip), vehicle: carboxymethylcellulose (CMC) 108 % of control

CCOC(=O)c1ccc(NC(=O)C(Br)C(Br)C(=O)O)cc1 (stereo unspecified)
inactive: [13] 110 % of control | endpoint: mean survival time, dose: 200.0 mg/kg/injection, schedule: Q01DX001 (ip), vehicle: saline with Tween-80 110 % of control | endpoint: mean survival time, dose: 400.0 mg/kg/injection, schedule: Q01DX001 (ip), vehicle: saline with Tween-80 108 % of control
